Data from US20040132969A1, “Antibodies, peptides, analogs and uses thereof” (priority 2000, published 2004).
Entries after “also recorded” stand apart in the source; their conditions may differ.

What was measured:
[1] = test system: chick chorioallantoic membrane (CAM); experiment: CAM cell proliferation assay (DNA synthesis, methyl-[3H]thymidine), substance alone; format: in vivo
Procedure: Cell proliferation was measured using the chick chorioallantoic membrane (CAM) model as described previously (4, 29, 30).
Briefly, on day zero, fertile hens' eggs, are placed in an egg incubator 37.5° C. with pointed ends facing downwards. On day 3, using a 2 ml syringe with a 21G needle, 2 ml of albumen is removed and the eggs returned to the incubator. On day 4, each egg is punctured by a needle at the blunt end into the air space. A square of shell is then removed, causing the egg contents to drop into the space left by collapse of the air space at the end of the egg and the withdrawal of albumen. The volume of the space above the dropped CAM is approximately 7 ml. The square opening in the shell is covered with Sellotape (RTM). The eggs then have to be kept level in the incubator without tilting. On day 10, the surviving eggs are organised into groups of preferably no less than 10. Test and control samples are prepared and each egg receives 0.3 ml of sample injected through the Sellotape (RTM) onto the upper surface of the CAM.
The technique of removal of each CAM is simple but crucial to the rationale of achieving results expressed as total DPM per CAM. […]
The assay used is based on quantitative measurement of DNA synthesis in the CAM after exposure to control and test substances 18 h after application in liquid form to the whole “dropped” area of each CAM (4,29). […]

[2] = test system: Lewis Lung Carcinoma (LLC) cells; experiment: Pulmonary tumour metastasis model (Lewis lung carcinoma); format: in vivo, C57BL/6J mice; conditions: lung weight / metastatic episodes
Procedure: In the metastasis model, Lewis Lung Carcinoma (LLC) cells are injected into the tail of the mouse, lodge in the lungs, and grow and spread rapidly.
In more detail, groups of five C57BL/6J mice were injected with 5×10^4 LLC cells via the tail vein and were subsequently treated intraperitoneally with various concentrations of tested peptides or equal volume of diluent control. The treatment was initiated three days after tumor cell inoculation. Two weeks after the intravenous injection of tumor cells, the mice were sacrificed and necropsied. The lungs were removed, weighed and compared to untreated controls, and to normal lungs without tumors. Results were analyzed for statistical significance using the Student's t-test.

LHADPDLGVLCPTGC [WTM34] was tested. Which “maximum inhibition in the CAM assay” value ([1]; peptide alone, highest dose tested (20 micromoles)) did it give?
Its value is 60%.

And the “effect on cell proliferation relative to control” value ([1]; substance alone, across the range of concentrations tested)?
Its value is “inherent inhibitory effect on cell stimulation; also recorded: inhibits cell proliferation and vessel formation in the CAM; also recorded: inhibitory effects”.

What about the “effect in metastasis model (in words)” value [2] of the same sequence?
Its value is “striking results”.
